According to patent publication US20050113450A1, “Antibacterial agents” (priority 2002, published 2005):
In brackets after ≈: the same amount, converted by molar mass.

What follows are compounds tested on SA 9218 (assay: MIC by standard agar dilution method). Conditions: Mueller Hinton agar, 10^4 to 10^5 cells per spot, incubated overnight at 35° C., lowest concentration that inhibits visible growth.
Type: cell-based
Source text: The antibacterial agents of this invention have useful activity against a variety of organisms. The in vitro activity of compounds of this invention can be assessed by standard testing procedures such as the determination of minimum inhibitory concentration (MIC) by agar dilution as described in “Approved Standard. Methods for Dilution Antimicrobial Susceptibility Tests for Bacteria That Grow Aerobically”, 3rd. ed., published 1993 by the National Committee for Clinical Laboratory Standards, Villanova, Pa., USA. The in vitro MICs of test compounds were determined by a standard agar dilution method. A stock drug solution of each analog was prepared in the preferred solvent, usually DMSO:H2O (1:3). Serial 2-fold dilutions of each sample are made using 1.0 ml aliquots of sterile distilled water. To each 1.0 ml aliquot of drug was added 9 ml of molten Mueller Hinton agar medium. The drug-supplemented agar was mixed, poured into 15×100 mm petri dishes, and allowed to solidify and dry prior to inoculation. Vials of each of the test organisms are maintained frozen in the vapor phase of a liquid nitrogen freezer. Test cultures are grown overnight at 35° C. on the medium appropriate for the organism. Colonies are harvested with a sterile swab, and cell suspensions are prepared in Trypticase Soy broth (TSB) to equal the turbidity of a 0.5 McFarland standard. A 1:20 dilution of each suspension was made in TSB. The plates containing the drug supplemented agar are inoculated with a 0.001 ml drop of the cell suspension using a Steers replicator, yielding approximately 10^4 to 10^5 cells per spot. The plates are incubated overnight at 35° C. Following incubation the Minimum Inhibitory Concentration (MIC μg/ml), the lowest concentration of drug that inhibits visible growth of the organism, was read and recorded.
Work on `CCN(Cc1ccncc1)S(=O)(=O)c1ccc(C(=O)Nc2ccc(Br)cc2C(=O)O)cc1` yielded an MIC of 32 µg/mL (≈ 61.7 µM).
`N#Cc1ccc(NC(=O)c2cccc3cccc(C=O)c23)c(C(=O)O)c1` was tested, and the MIC was over 128 µg/mL.
`Cc1cc(C(=O)Nc2ccc(Cl)cc2C(=O)O)cc(S(=O)(=O)N2CCc3ccccc32)c1` [PHA-664658] showed an MIC of 4 µg/mL (≈ 8.49 µM).
With `O=Cc1ccc(NC(=O)c2cc(Br)cc(S(=O)(=O)N3CCc4cc(Cl)ccc43)c2)c(C(=O)O)c1` [PHA-681768] the MIC was 1 µg/mL (≈ 1.77 µM).
Compound `Cc1cc(C)c(C(=O)Nc2cccc(C(=O)Nc3ccc(Br)cc3C(=O)O)c2)c(C)c1` [PHA-708981] has an MIC of 16 µg/mL (≈ 33.2 µM).
For `N#Cc1ccc(NC(=O)c2cccc(S(=O)(=O)N3CCCC4CCCCC43)c2)c(C(=O)O)c1` (centres unmarked) [PHA-571235], the MIC was 8 µg/mL (≈ 17.1 µM).
Compound `O=C(Nc1cccc(C(=O)Nc2ccc(Br)cc2C(=O)O)c1)c1ccc(Cl)nc1` [PHA-713389] has an MIC of over 128 µg/mL.
`N#Cc1ccc(C(=O)Nc2ccc(C#N)cc2C(=O)O)cc1` showed an MIC of over 128 µg/mL.
For `O=C(COc1ccccc1)c1cccc(C(=O)Nc2ccc(Cl)cc2C(=O)O)c1` [PHA-656882], the MIC was 16 µg/mL (≈ 39 µM).
For `CO/N=C/c1ccc(NC(=O)c2cccc(S(=O)(=O)N3CCc4cc(Cl)ccc43)c2)c(C(=O)O)c1` [PHA-682996], the MIC was 64 µg/mL (≈ 125 µM).
For `CC(C)(C)OC(=O)NC(COc1cccc(C(=O)Nc2ccc(Br)cc2C(=O)O)c1)c1ccccc1` (centres unmarked) [PHA-571287], the MIC was 2 µg/mL (≈ 3.6 µM).
Compound `CCCCCC(=O)NCc1ccc(C(=O)Nc2ccc(C#N)cc2C(=O)O)cc1S(=O)(=O)N1CCc2ccccc21` [PHA-738531] has an MIC of 64 µg/mL (≈ 111 µM).
Work on `COc1ccc(C(=O)Nc2ccc(Br)cc2C(=O)O)cc1S(=O)(=O)N(C)c1ccc(Cl)cc1` [PNU-291570] yielded an MIC of 8 µg/mL (≈ 14.4 µM).
For `Cc1ccc(S(=O)(=O)Nc2ccc(C(=O)Nc3ccc(Br)cc3C(=O)O)cc2)cc1`, the MIC was 16 µg/mL (≈ 32.7 µM).
For `C=Cc1ccc(C(=O)Nc2ccc(Br)cc2C(=O)O)cc1`, the MIC was over 128 µg/mL.
With `O=C(Nc1cccc(C(=O)Nc2ccc(Br)cc2C(=O)O)c1)c1ccc2c(c1)OCO2` [PHA-708983] the MIC was 32 µg/mL (≈ 66.2 µM).
Work on `CC(C(O)c1ccccc1)N(C)S(=O)(=O)c1cccc(C(=O)Nc2ccc(C#N)cc2C(=O)O)c1` (centres unmarked) [PHA-571226] yielded an MIC of 64 µg/mL (≈ 130 µM).
`Cc1ccc(C(=O)Nc2ccc(Br)cc2C(=O)O)cc1S(=O)(=O)N(C)c1ccc(Cl)cc1` [drawing 1134] was tested, and the “SA 9218 MIC” value was 1 µg/mL.
For `Cc1ccc(C(=O)Nc2ccc(Br)cc2C(=O)O)cc1S(=O)(=O)Nc1ccc2c(c1)OCCO2`, the MIC was 1 µg/mL (≈ 1.83 µM).
For `CCSc1ccc(C(=O)Nc2ccc(C#N)cc2C(=O)O)cc1`, the MIC was 2 µg/mL (≈ 6.13 µM).
For `CN(C)c1ccc(C(=O)c2ccc(C(=O)Nc3ccc(Cl)cc3C(=O)O)cc2)cc1`, the MIC was 16 µg/mL (≈ 37.8 µM).
Compound `O=C(Nc1ccc(Br)cc1C(=O)O)c1ccc(S(=O)(=O)Nc2nc[nH]n2)cc1` [PNU-282859] has an MIC of 32 µg/mL (≈ 68.6 µM).
Work on `O=C(Nc1ccc(Br)cc1C(=O)O)c1ccc(/N=N/c2ccccc2)cc1` yielded an MIC of 16 µg/mL (≈ 37.7 µM).
In the case of `O=C(Nc1ccc(/C=N/O)cc1C(=O)O)c1cccc(S(=O)(=O)N2CCc3cc(Cl)ccc32)c1` [PHA-686834], the MIC is reported as 4 µg/mL (≈ 8 µM).
`CN(C1CCCCC1)S(=O)(=O)c1cccc(C(=O)Nc2ccc(C#N)cc2C(=O)O)c1` [PHA-571186] showed an MIC of 128 µg/mL (≈ 290 µM).
`N#Cc1ccc(NC(=O)c2cccc(S(=O)(=O)NC3CCc4ccccc43)c2)c(C(=O)O)c1` (centres unmarked) [PHA-656807] showed an MIC of 64 µg/mL (≈ 139 µM).
Work on `O=C(Nc1ccc(Br)cc1C(=O)O)c1ccc(OCc2cccnc2)cc1` yielded an MIC of 64 µg/mL (≈ 150 µM).
`N#Cc1ccc(/C=C/c2cccc(S(=O)(=O)N3CCc4cc(Cl)ccc43)c2)c(C(=O)O)c1` [PHA-569887] gave an MIC of 0.25 µg/mL (≈ 0.538 µM).
`CCCN(CCC)S(=O)(=O)c1ccc(C(=O)Nc2ccc(Cl)cc2C(=O)O)cc1N.Cl` [PNU-283603A] showed an MIC of 16 µg/mL.
`CN(c1ccc(Cl)cc1)S(=O)(=O)c1cc(Br)cc(C(=O)Nc2ccc(C#N)cc2C(=O)O)c1` [PHA-630966] showed an MIC of 0.25 µg/mL (≈ 0.456 µM).
For `O=C(Nc1ccc(Br)cc1C(=O)O)c1ccc(OCCN2CCCC2=O)cc1`, the MIC was over 128 µg/mL.
Compound `O=C(Nc1ccc(-c2ccc(C(F)(F)F)cc2)cc1C(=O)O)c1cccc(S(=O)(=O)N2CCOCC2)c1` [PHA-610940] has an MIC of over 128 µg/mL.
`N#Cc1ccc(NC(=O)c2cccc(Oc3ccccc3)c2)c(C(=O)O)c1` [PHA-535553] was tested, and the MIC was 1 µg/mL (≈ 2.79 µM).
In the case of `CCOc1ccc(C(=O)Nc2ccc(Br)cc2C(=O)O)cc1OCC`, the MIC is reported as over 128 µg/mL.
Work on `COc1ccc([N+](=O)[O-])c(C(=O)Nc2ccc(Br)cc2C(=O)O)c1` yielded an MIC of over 128 µg/mL.
`CC1CC(S(=O)(=O)c2cccc(C(=O)Nc3ccc(C#N)cc3C(=O)O)c2)CC(C)O1` (centres unmarked) showed an MIC of 16 µg/mL (≈ 36.2 µM).
`O=C(Nc1ccc(Br)cc1C(=O)O)c1ccc(S(=O)(=O)n2cccc2)cc1` [PNU-291130] was tested, and the MIC was 4 µg/mL (≈ 8.9 µM).
For `N#Cc1ccc(NC(=O)c2cccc(C(=O)c3ccccc3)c2)c(C(=O)O)c1` [PHA-524524], the MIC was 1 µg/mL (≈ 2.7 µM).
